Reference: ChEMBL document CHEMBL2375301, “Design and synthesis of novel 4-benzothiazole amino quinazolines Dasatinib derivatives as potential anti-tumor agents” (Eur J Med Chem, 2013)

Tests used:
NCI-H661 = assay: Cytotoxicity against human NCI-H661 cells after 72 hrs by WST-8 assay; format: functional, cell-based; details: NCI-H661, 72 h
U-937 = assay: Cytotoxicity against human U937 cells after 72 hrs by WST-8 assay; format: functional, cell-based; details: U-937, 72 h
A549 = assay: Cytotoxicity against human A549 cells after 72 hrs by WST-8 assay; format: functional, cell-based; details: A549, 72 h
K562 = assay: Cytotoxicity against human K562 cells after 72 hrs by WST-8 assay; format: functional, cell-based; details: K562, 72 h
HCT-116 = assay: Cytotoxicity against human HCT116 cells after 72 hrs by WST-8 assay; format: functional, cell-based; details: HCT-116, 72 h
DLD-1 = assay: Cytotoxicity against human DLD1 cells after 72 hrs by WST-8 assay; format: functional, cell-based; details: DLD-1, 72 h
[1] = molecular target: Proto-oncogene tyrosine-protein kinase Src (Homo sapiens) (UniProt P12931); details: at 10 µM
Sequence of Proto-oncogene tyrosine-protein kinase Src (Homo sapiens) (P12931 2-536 limits assumed): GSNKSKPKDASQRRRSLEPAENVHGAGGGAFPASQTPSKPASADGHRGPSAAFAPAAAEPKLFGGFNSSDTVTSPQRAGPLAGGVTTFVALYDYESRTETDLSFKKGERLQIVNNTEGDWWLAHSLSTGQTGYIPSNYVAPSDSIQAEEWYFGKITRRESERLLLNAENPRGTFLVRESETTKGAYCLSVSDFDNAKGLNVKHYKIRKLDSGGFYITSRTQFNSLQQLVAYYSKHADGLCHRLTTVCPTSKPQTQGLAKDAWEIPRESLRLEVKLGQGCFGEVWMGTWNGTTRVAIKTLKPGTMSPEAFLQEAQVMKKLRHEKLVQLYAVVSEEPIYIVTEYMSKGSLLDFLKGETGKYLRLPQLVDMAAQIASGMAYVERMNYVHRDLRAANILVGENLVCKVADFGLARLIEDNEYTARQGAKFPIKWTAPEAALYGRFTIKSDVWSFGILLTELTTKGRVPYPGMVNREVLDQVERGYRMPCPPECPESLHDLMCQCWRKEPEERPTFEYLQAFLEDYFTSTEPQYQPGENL
Description: Inhibition of human recombinant SRC at 10 uM relative to control

[2] = molecular target: Epidermal growth factor receptor (Homo sapiens) (UniProt P00533); details: at 10 µM
Sequence of Epidermal growth factor receptor (Homo sapiens) (P00533 whole entry): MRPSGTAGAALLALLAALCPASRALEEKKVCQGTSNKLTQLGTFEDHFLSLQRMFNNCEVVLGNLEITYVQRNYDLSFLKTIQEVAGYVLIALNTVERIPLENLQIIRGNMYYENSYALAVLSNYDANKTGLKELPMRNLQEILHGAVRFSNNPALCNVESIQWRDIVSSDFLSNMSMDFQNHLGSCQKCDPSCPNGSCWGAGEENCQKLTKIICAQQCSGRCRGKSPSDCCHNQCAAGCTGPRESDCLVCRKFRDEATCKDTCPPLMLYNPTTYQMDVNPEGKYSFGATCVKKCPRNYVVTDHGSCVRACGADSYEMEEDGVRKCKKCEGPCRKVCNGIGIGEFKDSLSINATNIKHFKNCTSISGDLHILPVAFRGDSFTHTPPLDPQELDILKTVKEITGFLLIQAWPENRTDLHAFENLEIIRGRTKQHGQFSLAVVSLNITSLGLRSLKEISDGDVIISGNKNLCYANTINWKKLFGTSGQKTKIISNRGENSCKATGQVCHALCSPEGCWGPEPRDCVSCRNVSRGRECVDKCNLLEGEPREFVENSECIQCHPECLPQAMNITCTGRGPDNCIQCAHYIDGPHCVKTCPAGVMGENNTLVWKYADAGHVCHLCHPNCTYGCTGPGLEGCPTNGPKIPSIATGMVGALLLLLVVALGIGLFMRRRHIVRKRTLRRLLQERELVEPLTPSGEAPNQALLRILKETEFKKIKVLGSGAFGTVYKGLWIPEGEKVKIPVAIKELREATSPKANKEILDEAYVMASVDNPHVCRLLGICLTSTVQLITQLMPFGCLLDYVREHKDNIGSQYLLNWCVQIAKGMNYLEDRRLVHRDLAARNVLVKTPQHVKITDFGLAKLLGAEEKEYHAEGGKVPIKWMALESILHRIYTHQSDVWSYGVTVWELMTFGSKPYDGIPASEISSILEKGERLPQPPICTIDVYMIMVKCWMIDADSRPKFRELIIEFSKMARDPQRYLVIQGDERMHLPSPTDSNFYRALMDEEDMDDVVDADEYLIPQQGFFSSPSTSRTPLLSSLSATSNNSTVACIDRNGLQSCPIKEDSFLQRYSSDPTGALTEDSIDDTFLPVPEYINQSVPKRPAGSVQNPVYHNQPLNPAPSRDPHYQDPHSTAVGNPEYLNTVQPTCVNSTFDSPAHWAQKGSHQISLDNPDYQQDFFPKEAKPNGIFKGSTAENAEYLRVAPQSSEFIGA
Description: Inhibition of EGFR (unknown origin) at 10 uM relative to control

[3] = molecular target: Tyrosine-protein kinase ABL1 (Homo sapiens) (UniProt P00519); details: at 10 µM
Sequence of Tyrosine-protein kinase ABL1 (Homo sapiens) (P00519 whole entry): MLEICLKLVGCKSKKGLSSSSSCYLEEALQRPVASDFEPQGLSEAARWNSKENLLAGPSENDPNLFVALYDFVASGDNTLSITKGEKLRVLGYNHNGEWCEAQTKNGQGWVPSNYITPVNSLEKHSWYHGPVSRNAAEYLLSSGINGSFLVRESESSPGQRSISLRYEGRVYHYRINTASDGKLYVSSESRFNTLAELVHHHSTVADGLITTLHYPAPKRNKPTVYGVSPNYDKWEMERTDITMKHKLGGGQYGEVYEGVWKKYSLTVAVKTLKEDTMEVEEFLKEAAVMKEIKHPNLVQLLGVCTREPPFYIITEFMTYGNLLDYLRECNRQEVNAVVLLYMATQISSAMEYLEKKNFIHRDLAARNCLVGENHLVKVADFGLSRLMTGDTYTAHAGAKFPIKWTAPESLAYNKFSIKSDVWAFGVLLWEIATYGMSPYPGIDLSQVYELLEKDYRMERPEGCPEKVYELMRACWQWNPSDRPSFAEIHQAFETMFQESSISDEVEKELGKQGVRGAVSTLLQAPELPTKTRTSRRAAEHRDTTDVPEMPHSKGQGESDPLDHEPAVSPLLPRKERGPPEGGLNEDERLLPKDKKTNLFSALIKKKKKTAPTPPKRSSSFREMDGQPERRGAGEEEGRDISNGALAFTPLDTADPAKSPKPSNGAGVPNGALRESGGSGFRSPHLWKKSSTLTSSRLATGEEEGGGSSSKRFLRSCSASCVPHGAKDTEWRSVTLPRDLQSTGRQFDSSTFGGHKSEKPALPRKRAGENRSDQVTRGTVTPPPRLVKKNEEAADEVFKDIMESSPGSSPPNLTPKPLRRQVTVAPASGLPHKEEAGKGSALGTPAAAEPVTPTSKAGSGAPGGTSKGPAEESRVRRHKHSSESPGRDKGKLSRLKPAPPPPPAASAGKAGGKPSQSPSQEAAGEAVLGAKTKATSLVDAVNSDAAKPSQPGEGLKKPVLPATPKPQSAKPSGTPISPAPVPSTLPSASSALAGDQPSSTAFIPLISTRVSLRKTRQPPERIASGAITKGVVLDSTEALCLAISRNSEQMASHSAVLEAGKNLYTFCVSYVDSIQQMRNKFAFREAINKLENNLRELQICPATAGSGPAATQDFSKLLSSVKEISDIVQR
Description: Inhibition of human recombinant ABL at 10 uM relative to control

| SMILES | inhibition [1] [%] | inhibition [2] [%] | inhibition [3] [%] | IC50 (NCI-H661) [µM] | IC50 (U-937) [µM] | IC50 (A549) [µM] | IC50 (K562) [µM] | IC50 (HCT-116) [µM] | IC50 (DLD-1) [µM] |
| --- | --- | --- | --- | --- | --- | --- | --- | --- | --- |
| CCN(CC)CCCOc1cc2ncnc(Nc3nc4ccc(C(=O)Nc5c(C)cc(C)cc5C)cc4s3)c2cc1OC | 65.3 | 25.4 | 76.3 | 7.3 | 4.3 | 5.7 | 6.8 | 7.5 | 6.8 |
| CCN(CC)CCCOc1cc2ncnc(Nc3nc4ccc(C(=O)Nc5c(C)cccc5Cl)cc4s3)c2cc1OC | 68.2 | 46.8 | 67.1 | 11.2 | 7.3 | 10.6 | 9.6 | 13.2 | 11.7 |
| COc1cc2c(Nc3nc4ccc(C(=O)Nc5c(C)cccc5C)cc4s3)ncnc2cc1OCCCN1CCCCC1 | 43.4 | 17.3 | 39 | > 100 | 14.7 | > 100 | 13.7 | > 100 | > 100 |
| COc1cc2c(Nc3nc4ccc(C(=O)Nc5c(C)cccc5C)cc4s3)ncnc2cc1OCCCN1CCCCC1C (configuration not stated) | 49 | 25.4 | 49.2 | 84.4 | 10.8 | 75.7 | 12.3 | > 100 | > 100 |
| Cc1nc(Nc2ncc(C(=O)Nc3c(C)cccc3Cl)s2)cc(N2CCN(CCO)CC2)n1 [DASATINIB] | – | – | – | 7.8 | 12.2 | 8.2 | 11.9 | 5.3 | 4.6 |
| COc1cc2c(Nc3nc4ccc(C(=O)Nc5c(C)cccc5C)cc4s3)ncnc2cc1OCCCN1CCC(C)CC1 | 56.5 | 13.3 | 54.2 | 72.3 | 11.2 | 89.7 | 15.8 | > 100 | > 100 |
| COc1cc2c(Nc3nc4ccc(C(=O)Nc5c(C)cc(C)cc5C)cc4s3)ncnc2cc1OCCCN1CCCC1 | 91.8 | 48.7 | 82.3 | 9.6 | 4.6 | 8.9 | 4.3 | 5.8 | 5.9 |
| COc1cc2c(Nc3nc4ccc(C(=O)Nc5c(C)cccc5Cl)cc4s3)ncnc2cc1OCCCN1CCCCC1C (configuration not stated) | 78.9 | 53.6 | 71.1 | 5.3 | 7 | 6.7 | 6.8 | 7.2 | 6.7 |
| CCN(CC)CCCOc1cc2ncnc(Nc3nc4ccc(C(=O)Nc5c(C)cccc5C)cc4s3)c2cc1OC | 53.6 | 10.5 | 50 | 66.5 | 23.7 | > 100 | 28.4 | > 100 | > 100 |

More lines, main results first:

| inhibition [1] [%] | inhibition [2] [%] | inhibition [3] [%] | SMILES | IC50 (NCI-H661) [µM] | IC50 (U-937) [µM] | IC50 (A549) [µM] | IC50 (K562) [µM] | IC50 (HCT-116) [µM] | IC50 (DLD-1) [µM] |
| --- | --- | --- | --- | --- | --- | --- | --- | --- | --- |
| 89.2 | 65.8 | – | COc1cc2c(Nc3nc4ccc(C(=O)Nc5c(C)cc(C)cc5C)cc4s3)ncnc2cc1OCCCN1CCCCC1C (configuration not stated) | 8.8 | 3.6 | 5.8 | 3.5 | 5.6 | 5.7 |
| 28.7 | 9.9 | 41.7 | COc1cc2c(Nc3nc4ccc(C(=O)Nc5c(C)cccc5C)cc4s3)ncnc2cc1OCCCN1CCOCC1 | > 100 | 19.2 | > 100 | > 100 | > 100 | > 100 |
| 67.4 | 23.7 | 56.2 | COc1cc2c(Nc3nc4ccc(C(=O)Nc5c(C)cccc5Cl)cc4s3)ncnc2cc1OCCCN1CCC(C)CC1 | 7.9 | 9.2 | 9.7 | 8.3 | 9.1 | 11.3 |
| 39.9 | 21.2 | 34.3 | COc1cc2c(Nc3nc4ccc(C(=O)Nc5c(C)cccc5C)cc4s3)ncnc2cc1OCCCN1CCCC1 | > 100 | 18.9 | 83.8 | 15.7 | > 100 | > 100 |
| 34.3 | 10.4 | 43.7 | COc1cc2c(Nc3nc4ccc(C(=O)Nc5c(C)cccc5Cl)cc4s3)ncnc2cc1OCCCN1CCOCC1 | > 100 | 22.6 | 75.2 | 16.4 | > 100 | > 100 |
| 83.3 | 28.7 | 49.9 | COc1cc2c(Nc3nc4ccc(C(=O)Nc5c(C)cccc5Cl)cc4s3)ncnc2cc1OCCCN1CCCCC1 | 13.8 | 8.6 | 12.8 | 12.5 | 23.4 | 14.7 |
| 55.7 | 15.6 | 78.7 | COc1cc2c(Nc3nc4ccc(C(=O)Nc5c(C)cccc5Cl)cc4s3)ncnc2cc1OCCCN1CCCC1 | 45.5 | 19.9 | 38.6 | 13.3 | 63.8 | 60.7 |
| 69.7 | 37.9 | 81.6 | COc1cc2c(Nc3nc4ccc(C(=O)Nc5c(C)cc(C)cc5C)cc4s3)ncnc2cc1OCCCN1CCCCC1 | 10 | 12.2 | 10.3 | 9.3 | 16.9 | 24.5 |
| 80.6 | 45.1 | 76.5 | COc1cc2c(Nc3nc4ccc(C(=O)Nc5c(C)cc(C)cc5C)cc4s3)ncnc2cc1OCCCN1CCOCC1 | 18.4 | 24.2 | 16.3 | 20 | 5.6 | 5.8 |
| 78.6 | 36.3 | 68.2 | COc1cc2c(Nc3nc4ccc(C(=O)Nc5c(C)cc(C)cc5C)cc4s3)ncnc2cc1OCCCN1CCC(C)CC1 | 7.7 | 5.6 | 5.4 | 5.9 | 6.9 | 7 |
